In patent publication US9067968B2, “Tight junction protein modulators and uses thereof” (The Regents of the University of Colorado, a body corporate, priority 2007, dated 2015):
Bridges are numbered along the chain shown (N, C = ends). Where no end group is shown, it is not given here.

How the values were obtained:
[1] = system: activated caspase-8 and activated caspase-3; assay: Activated caspase stains in live peptide-treated cells; assay type: cell-based, mouse; conditions: EPH4 cells, 2 h post peptide treatment, 350 μM
Procedure: Cells were stained with Image-iT®LIVE Green Caspase-8 Detection Kit, Molecular Probes and/or Image-iT®LIVE Red Caspase-3 and -7 Detection Kit, Molecular Probes. Stains were both diluted into differentiation media that contained LYHY (SEQ ID NO:1) or LYQY (SEQ ID NO:3). Cells were stained in the incubator 1 hour, rinsed in […] differentiation media, and processed for immunofluorescence.
Possible mechanism linking occludin disruption to a known means of initiation of apoptosis was then explored using the LYHY (SEQ ID NO:1) peptide. It is believed that the loss of cellular adhesion results in the activation of the death receptor pathway and specify caspase-8 as the initiator caspase in apoptosis occurring due to loss of either cadherin or integrin function. To observe potential activation of the caspase-8 cascade, live EPH4 cells that had been treated with LYHY (SEQ ID NO:1) or control peptide were stained with cell permeable, fluorescent probes that irreversibly bind the proteolytic sites of activated caspase-8 (carboxyfluoresceine-LETD-fmk) and activated caspase-3 (sulphorhodamine-DEVD-fmk). […] Areas showing caspase-3 activation overlapped with areas showing caspase-8 activation, while caspase-8 activation was more widespread and sometimes occurred alone. […]

EPH4 cells [2] = assay: TER of intact high resistance monolayers during peptide treatment; assay type: cell-based, mouse; conditions: 350 μM, 3 days of peptide treatment, replenished daily
Procedure: (§1) FIGS. 4A and 4B show the effects of the LYHY (SEQ ID NO:1) peptide on TUNEL reactivity and TER. In particular, FIG. 4A is a graph showing the number of TUNEL stained EPH4 and MDCK cells that were grown on glass slides and treated with LYHY (SEQ ID NO:1) or control peptide for 6 or 12 hours. FIG. 4B is a graph of TER that was recorded at 0, 24, […], and 72 hours post peptide treatment of EPH4 cells that were grown on filters until the TER reached 1000 (Ohms·cm^2), then treated with solvent, LYHY (SEQ ID NO:1), or control peptides. Peptides were diluted to 350 μM in normal growth medium and placed in the top and bottom chambers. TER was recorded at 0, 24, 48, and 72 hours post peptide treatment. Peptides were replenished daily, after recordings.
Similarly, treatment of EPH4 cells with a larger occludin mimic peptide caused a change in occludin distribution while treated cells maintained the majority of control TER.

EPH4 cells [3] = assay: TUNEL staining of peptide-treated EPH4 cells; assay type: cell-based, mouse; conditions: for rate of apoptosis: peptide treatment of mature monolayers
Procedure: (§2) TUNEL staining was performed using the Roche In Situ Cell Death Detection Kit, TMR red. Cells were fixed in 2% paraformaldehyde and permeabilized in 1% sodium citrate (trisodium salt) containing 0.1% TX-100. Staining was performed as per manufacturers instructions.
(§3) Having established that LYHY (SEQ ID NO:1) and DFYNP (SEQ ID NO:3) peptides impeded recovery of TER following the calcium switch and changed the normal distribution of occludin, the effects of disruption of occludin function on apoptosis was examined. EPH4 mouse mammary epithelial cells and MDCK canine kidney epithelial cells were treated with LYHY (SEQ ID NO:1) peptide for various times and then TUNEL stained.
as §1

MDCK cells = assay: TUNEL staining of peptide-treated MDCK cells; assay type: cell-based, canine; conditions: 6 or 12 hours
Procedure: as §2, §3
as §1, with “Peptides were replenished daily, after recordings.” left out

occludin = assay: Occludin distribution by immunofluorescence after peptide treatment; assay type: cell-based, mouse; conditions: mature EPH4 monolayers, 8 hours at 350 μM
Procedure: To establish the effect of LYHY (SEQ ID NO:1) and DFYNP (SEQ ID NO:2) peptide treatment upon the distribution of endogenous occludin, EPH4 cells were treated with the peptides for 8 hours. The effect of peptides on occludin distribution in mature EPH4 cell monolayers is shown on FIG. 3B, where cell cultures grown on glass slides were treated with LYHY (SEQ ID NO:1), DFYNP (SEQ ID NO:2) or control LYQY (SEQ ID NO:3) peptide for 8 hours at 350 μM. Cells were then stained for occludin. […] Occludin was not as brightly stained at the tight junction in these cells and appeared in intracellular regions outside the tight junction.

EPH4 cells [4] = assay: Calcium switch: recovery of transepithelial resistance; assay type: cell-based, mouse; conditions: peptide 350 μM, removed after 24 hours
Procedure: To confirm that the LYHY (SEQ ID NO:1) and DFYNP (SEQ ID NO:2) peptides disrupted tight junction properties, a “calcium switch” experiment was performed. The removal of extracellular Ca^+2 and Mg^+2 abolished TER and disrupts intercellular junctions when applied to various epithelia, causing an intracellular redistribution of various cell adhesion proteins, including occludin, away from the apical junction complex. Several epithelial cell lines reorganized the apical junction complex and recovered TER following the replenishment of normal Ca^+2 and Mg^+2 containing medium. The calcium switch was performed on filter-grown EPH4 cells that had achieved a TER of 1000 Ohms·cm^2. After 15 minutes in Ca^+2 and Mg^+2 depleted-medium, TER was reduced to baseline resistance. Cells were then switched back to normal medium containing the occludin peptide, the claudin peptide or the control peptide at a concentration of 350 μM. The control peptide (LYQY (SEQ ID NO:3)) had one amino acid substitution of the occludin peptide and was also circularized with cysteines at each terminus. Peptides were removed after 24 hours. […] TER was measured at 12 and 24 hours following peptide application. Peptides were washed away 24 hours following application and TER was measured every 24 hours thereafter. […]

Substance	staining for activated caspases (caspase-8, caspase-3) [1]	effect on TER of intact monolayers (EPH4 cells [2])	TUNEL staining (EPH4 cells [3]; EPH4 cells, 6 or 12 hours)	rate of apoptosis (EPH4 cells [3])	TUNEL staining (MDCK cells)	distribution of endogenous occludin (occludin)	TER reached after the calcium switch (EPH4 cells [4]; after about 6 days / several days following peptide removal) [Ohms·cm^2]	time to recover initial TER following the calcium switch (EPH4 cells [4]; initial TER 1000 Ohms·cm^2) [h]
cyclic H-CLYHYC-OH (flanking Cys, cyclised; TJ Protein Modulator 1) [Occludin second extracellular loop peptide, cyclized via flanking cysteines]	increased staining for activated caspases relative to controls	did not significantly reduce TER	increased TUNEL staining	increase the rate of apoptosis	increased TUNEL staining	islands of cells with irregular occludin distribution	–	–
H-CDFYNPC (disulfide 1-7; not fully specified) [peptide derived from the second extracellular loop of several claudins, cyclized via flanking cysteines]	–	did not significantly reduce TER	–	increase the rate of apoptosis	–	islands of cells with irregular occludin distribution	–	–
Cyclic H-CLYQYC-OH (flanking Cys, cyclised; Control Peptide Fig. 3A) [control peptide with one amino acid substitution of the occludin peptide, circularized with cysteines at each terminus]	–	–	–	–	–	Only an occasional cell showing non-tight junctional distribution of occludin	4000	≤ 48
